Assay results published in patent publication US7713994B2 (Wyeth LLC, priority 2005, dated 2010).
Read-outs that look alike come from different tables or passages of the source.

Experiments:
cyclin D1/cdk 4 enzyme = molecular target: T1, cyclin D1/cdk 4 enzyme (Homo sapiens, UniProt P11802); experiment: CDK4 ELISA kinase assay (phospho-Rb ser 795 detection); assay type: biochemical; conditions: In Vitro Enzyme Assays, 200 μM ATP, read-out: CDK4 IC50
T1 construct: made in house; host or cells: Sf9 insect cells, recombinant baculovirus
In short: (§1)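 ELISA format: plate-bound GST-Rb, 200 μM ATP, Sf9 cyclin/CDK enzyme, 1 h at 30° C; then anti-pRb Ser795 primary overnight at 4° C, HRP secondary, TMB. IC50 after no-substrate background subtraction.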

MCF-7 = experiment: Cytotoxicity assay (SRB), MCF-7; assay type: cell-based; conditions: Homo sapiens, MCF7, 72 h, read-out: In Vitro Cellular Activity IC50 MCF-7
In short: (§2)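 Protein staining with sulforhodamine B after cold TCA fixation served as the survival endpoint (A540, relative to untreated cells). Before staining, cells were incubated with compound at 37 °C, 7% CO2 for 3 days, or 6 days for BT474.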

cyclin E/CDK2 enzyme = molecular target: T2, cyclin E/CDK2 enzyme (Homo sapiens, UniProt P24941); experiment: CDK2 ELISA kinase assay (phospho-Rb ser 795 detection); assay type: biochemical; conditions: In Vitro Enzyme Assays, read-out: CDK2 IC50
T2 construct: made in house; host or cells: Sf9 insect cells, recombinant baculovirus
In short: as §1

LoVo = experiment: Cytotoxicity assay (SRB), LoVo; assay type: cell-based; conditions: Homo sapiens, LoVo, 72 h, read-out: In Vitro Cellular Activity IC50 LOVO
In short: as §2

BT474 = experiment: Cytotoxicity assay (SRB), BT474; assay type: cell-based; conditions: Homo sapiens, BT-474, 144 h, read-out: In Vitro Cellular Activity IC50 BT474
In short: as §2

cyclin B/CDK1 enzyme = molecular target: T3, cyclin B/CDK1 enzyme (Homo sapiens, UniProt P06493); experiment: CDK1 ELISA kinase assay (phospho-Rb ser 795 detection); assay type: biochemical; conditions: In Vitro Enzyme Assays, read-out: CDK1 IC50
T3 construct: purchased New England BioLabs; host or cells: Sf9 insect cells, recombinant baculovirus
In short: as §1

HCT-116 = experiment: Cytotoxicity assay (SRB), HCT-116; assay type: cell-based; conditions: Homo sapiens, HCT-116, 72 h, read-out: In Vitro Cellular Activity IC50 HCT116
In short: as §2

T3 sequence (P06493 whole entry): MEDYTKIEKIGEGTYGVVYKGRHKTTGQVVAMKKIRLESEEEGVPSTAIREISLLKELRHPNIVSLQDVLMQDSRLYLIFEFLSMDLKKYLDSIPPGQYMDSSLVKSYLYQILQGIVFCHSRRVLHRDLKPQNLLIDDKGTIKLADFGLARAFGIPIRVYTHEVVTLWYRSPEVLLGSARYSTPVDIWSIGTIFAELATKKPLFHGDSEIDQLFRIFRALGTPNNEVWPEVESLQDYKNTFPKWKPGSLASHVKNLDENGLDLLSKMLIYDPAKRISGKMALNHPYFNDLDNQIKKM
T3 sequence (P14635 whole entry partner): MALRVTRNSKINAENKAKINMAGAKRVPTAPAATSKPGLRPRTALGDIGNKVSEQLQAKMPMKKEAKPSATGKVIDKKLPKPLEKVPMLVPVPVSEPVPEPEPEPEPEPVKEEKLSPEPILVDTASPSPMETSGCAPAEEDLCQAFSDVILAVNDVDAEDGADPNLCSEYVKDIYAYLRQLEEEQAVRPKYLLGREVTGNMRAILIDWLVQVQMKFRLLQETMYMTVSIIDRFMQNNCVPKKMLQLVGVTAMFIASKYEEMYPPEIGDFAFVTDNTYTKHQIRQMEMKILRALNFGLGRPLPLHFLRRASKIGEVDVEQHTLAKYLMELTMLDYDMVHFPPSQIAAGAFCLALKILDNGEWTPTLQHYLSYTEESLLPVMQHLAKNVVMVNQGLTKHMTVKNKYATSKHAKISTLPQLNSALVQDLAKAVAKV
T1 sequence (P11802 whole entry, species assumed): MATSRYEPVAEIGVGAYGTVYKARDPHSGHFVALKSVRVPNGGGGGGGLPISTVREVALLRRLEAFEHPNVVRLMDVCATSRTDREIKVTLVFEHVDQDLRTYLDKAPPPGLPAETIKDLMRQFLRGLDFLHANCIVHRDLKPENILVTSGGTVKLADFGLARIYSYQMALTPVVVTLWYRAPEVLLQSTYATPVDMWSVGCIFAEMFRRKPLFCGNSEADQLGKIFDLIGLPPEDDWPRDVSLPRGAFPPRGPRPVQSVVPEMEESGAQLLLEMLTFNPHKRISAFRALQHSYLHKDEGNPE
T1 sequence (P24385 whole entry partner, species assumed): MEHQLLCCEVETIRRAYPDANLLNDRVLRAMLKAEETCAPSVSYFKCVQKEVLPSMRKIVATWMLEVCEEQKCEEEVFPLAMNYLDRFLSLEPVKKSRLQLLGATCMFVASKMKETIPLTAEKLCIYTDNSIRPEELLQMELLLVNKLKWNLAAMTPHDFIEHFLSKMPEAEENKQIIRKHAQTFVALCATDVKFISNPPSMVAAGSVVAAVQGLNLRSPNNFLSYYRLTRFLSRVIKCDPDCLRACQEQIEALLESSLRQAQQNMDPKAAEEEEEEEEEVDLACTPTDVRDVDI

Structure (SMILES)	melting point	IC50 (cyclin D1/cdk 4 enzyme)	IC50 (cyclin E/CDK2 enzyme)	IC50 (cyclin B/CDK1 enzyme)	IC50 (MCF-7; MCF-7 cells, SRB, three days)	IC50 (LoVo; LoVo cells, SRB, three days)	IC50 (BT474; BT474 cells, SRB, 6 days)	IC50 (HCT-116; HCT116 cells, SRB, three days)	IC50 (MCF-7)	IC50 (LoVo)	IC50 (BT474)	IC50 (HCT-116)	IC50 (LoVo; LoVo cells, 3 days, SRB)	IC50 (BT474; BT474 cells, 6 days, SRB)
CC1CN(C)[C@H](C)CN1c1ccc(N/C=C2\C(=O)NC(=O)c3ccc(Br)cc32)cc1 (stereo in doubt) [Example 238, (4Z)-6-Bromo-4-[({4-[(2S,5R)-2,4,5-trimethylpiperazin-1-yl]phenyl}amino)methylene]-isoquinoline-1,3(2H,4H)-dione]	184 to 185 °C	4.8 µM	> 50 µM	> 50 µM	1 µM	4.3 µM	7.4 µM	6.7 µM	–	–	–	–	–	–
Nc1cccc(CN/C=C2\C(=O)NC(=O)c3ccc(Br)cc32)c1 [Example 52, (4Z)-4-{[(3-Aminobenzyl)amino]methylene}-6-bromoisoquinoline-1,3(2H,4H)-dione]	214 to 215 °C	24.3 µM	4.5 µM	> 50 µM	> 50 µM	> 50 µM	41 µM	40 µM	–	–	–	–	–	–
O=C1NC(=O)c2ccc(Br)cc2/C1=C/Nc1ccc(CN2CCCC2)cc1 [Example 59, (4Z)-6-Bromo-4-({[4-(pyrrolidin-1-ylmethyl)phenyl]amino}methylene)isoquinoline-1,3(2H,4H)-dione]	165 to 166 °C	0.23 µM	25.2 µM	> 50 µM	–	–	–	–	4.13 µM	6.1 µM	6.3 µM	4.7 µM	–	–
O=C1NC(=O)c2ccc(Br)cc2/C1=C/NCc1cc(O)cc(O)c1 [Example 64]	318 to 319 °C	0.015 µM	0.62 µM	16.5 µM	> 50 µM	> 50 µM	28 µM	> 50 µM	–	–	–	–	–	–
CC(=O)Oc1cc(CNC=C2C(=O)NC(=O)c3ccc(Br)cc32)cc(OC(C)=O)c1 [Example 69, Acetic acid 3-acetoxy-5-{[(6-bromo-1,3-dioxo-2,3-dihydro-1H-isoquinolin-4-ylidenemethyl)-amino]-methyl}-phenyl ester]	257 to 258 °C	0.12 µM	44.5 µM	> 50 µM	8.2 µM	5.2 µM	5.6 µM	6.5 µM	–	–	–	–	–	–
CN(C)Cc1ccc(N/C=C2\C(=O)NC(=O)c3ccc(Br)cc32)cc1 [Example 73]	159 to 160 °C	0.83 µM	7.7 µM	43.5 µM	9.3 µM	13 µM	18 µM	10 µM	–	–	–	–	–	–
COC(=O)Oc1ccc(CN/C=C2\C(=O)NC(=O)c3ccc(Br)cc32)cc1OC(=O)OC [Example 76, Carbonic acid 5-{[(6-bromo-1,3-dioxo-2,3-dihydro-1H-isoquinolin-4-ylidenemethyl)-amino]-methyl}-2-methoxycarbonyloxy-phenyl ester methyl ester]	239 to 240 °C	0.39 µM	> 50 µM	40.7 µM	9.1 µM	5.9 µM	5.5 µM	5 µM	–	–	–	–	–	–
COc1cc(CN/C=C2\C(=O)NC(=O)c3ccc(Br)cc32)cc(OC(C)=O)c1OC [Example 77, 5-({[(Z)-(6-Bromo-1,3-dioxo-2,3-dihydroisoquinolin-4(1H)-ylidene)methyl]amino}methyl)-2,3-dimethoxyphenyl acetate]	244 to 245 °C	0.38 µM	> 50 µM	> 50 µM	14.4 µM	8.4 µM	7.7 µM	4.8 µM	–	–	–	–	–	–
COc1cc(CN/C=C2\C(=O)NC(=O)c3ccc(-c4ccsc4)cc32)cc(O)c1OC [Example 85]	255 to 256 °C	0.001 µM	> 50 µM	> 50 µM	8.4 µM	2.7 µM	3.5 µM	3.7 µM	–	–	–	–	–	–
COc1cc(CN/C=C2\C(=O)NC(=O)c3ccc(I)cc32)cc(O)c1OC [Example 89, (4Z)-6-Iodo-4-{[(3-hydroxy-4,5-dimethoxybenzyl)amino)methylene}isoquinoline-1,3(2H,4H)-dione]	265 to 266 °C	0.002 µM	3.3 µM	> 50 µM	20 µM	7.8 µM	5.9 µM	3.7 µM	–	–	–	–	–	–
O=C(O)CCCN/C=C1\C(=O)NC(=O)c2ccc(-n3cccc3)cc21 [Example 315, (Z)-4-((1,3-Dioxo-6-(1H-pyrrol-1-yl)-2,3-dihydroisoquinolin-4(1H)-ylidene)methylamino)butanoic acid]	230 to 240 °C (dec.)	0.19 µM	31 µM	43.4 µM	–	–	–	–	–	–	–	–	–	–

The remaining molecules from weak to strong by IC50 (cyclin D1/cdk 4 enzyme), led by results:

melting point	IC50 (cyclin D1/cdk 4 enzyme)	IC50 (cyclin E/CDK2 enzyme)	IC50 (cyclin B/CDK1 enzyme)	Structure (SMILES)	IC50 (MCF-7; MCF-7 cells, SRB, three days)	IC50 (LoVo; LoVo cells, SRB, three days)	IC50 (BT474; BT474 cells, SRB, 6 days)	IC50 (HCT-116; HCT116 cells, SRB, three days)	IC50 (MCF-7)	IC50 (LoVo)	IC50 (BT474)	IC50 (HCT-116)	IC50 (LoVo; LoVo cells, 3 days, SRB)	IC50 (BT474; BT474 cells, 6 days, SRB)
242 to 243 °C	9.4 µM	> 50 µM	16.9 µM	CN1CCN(c2ccc(N/C=C3\C(=O)NC(=O)c4ccc(F)cc43)cc2)CC1 [Example 70, (4Z)-6-Fluoro-4-({[4-(4-methylPiperzin-1-yl)phenyl]amino}methylene)isoquinoline-1,3(2H,4H)-dione]	4.06 µM	5.18 µM	3.23 µM	2.55 µM	–	–	–	–	–	–
260 to 262 °C (dec.)	1.5 µM	37.1 µM	> 50 µM	O=C(O)CCCN/C=C1\C(=O)NC(=O)c2ccc(Br)cc21 [Example 314, (Z)-4-((6-Bromo-1,3-dioxo-2,3-dihydroisoquinolin-4(1H)-ylidene)methylamino)butanoic acid]	–	–	–	–	–	–	–	–	–	–
273 to 274 °C	0.48 µM	1.3 µM	16.2 µM	NS(=O)(=O)c1ccc(CN/C=C2\C(=O)NC(=O)c3ccc(Br)cc32)cc1 [Example 56, 4-({[(Z)-(6-Bromo-1,3-dioxo-2,3-dihydroisoquinolin-4(1H)-ylidene)methyl]amino}methyl)benzenesulfonamide]	27 µM	30 µM	23 µM	28 µM	–	–	–	–	–	–
239 to 240 °C	0.16 µM	> 50 µM	> 50 µM	CC(=O)Oc1ccc(CN/C=C2\C(=O)NC(=O)c3ccc(Br)cc32)cc1OC(C)=O [Example 54, 2-(Acetyloxy)-4-({[(Z)-(6-bromo-1,3-dioxo-2,3-dihydroisoquinolin-4(1H)-ylidene)methyl]-amino}methyl)phenyl acetate]	9.2 µM	5.9 µM	6.5 µM	6.4 µM	–	–	–	–	–	–
262 to 263 °C	0.13 µM	> 50 µM	> 50 µM	CN1CCN(c2ccc(N/C=C3\C(=O)NC(=O)c4ccc(-c5ccoc5)cc43)nc2)CC1 [Example 443, (4Z)-6-(3-Furyl)-4-({[5-(4-methylpiperazin-1-yl)pyridin-2-yl]amino}methylene)isoquinoline-1,3(2H,4H)-dione]	–	–	–	–	–	–	–	–	0.85 µM	0.65 µM
245 to 246 °C	0.08 µM	6.7 µM	> 50 µM	Nc1ccc(CN/C=C2\C(=O)NC(=O)c3ccc(Br)cc32)cc1O [Example 227, (4Z)-4-{[(4-Amino-3-hydroxybenzyl)amino]methylene}-6-bromoisoquinoline-1,3(2H,4H)-dione]	> 50 µM	37 µM	–	44 µM	–	–	–	–	–	–
240 to 242 °C (dec.)	0.031 µM	2.9 µM	22.3 µM	COc1ccc2c(c1)/C(=C/NCc1ccc(OC)c(O)c1)C(=O)NC2=O [Example 90, 4-[(3-Hydroxy-4-methoxy-benzylamino)-methylene]-6-methoxy-4H-isoquinoline-1,3-dione]	12 µM	24 µM	6.9 µM	9.8 µM	–	–	–	–	–	–
263 to 264 °C	0.0008 µM	8.1 µM	1.2 µM	COc1cc(CN/C=C2\C(=O)NC(=O)c3ccc(-c4ccoc4)cc32)cc(O)c1OC [Example 87]	4.1 µM	4.2 µM	1.3 µM	4.2 µM	–	–	–	–	–	–
